The source made the active and inactive calls.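 How the source made its calls: active means maximal percent inhibition of the deubiquitinase OTUD3 of at least 30% across the tested doses; inactive means the rest.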
The compounds below were run against OTU domain-containing protein 3 (Homo sapiens) (UniProt Q5T2D3) (assay: Validation of screening hits, potency titration, in vitro enzymatic, OTU domain-containing protein 3 DUB inhibitors (AID 1645868)). Conditions: purified OTUD3, ubiquitin-rhodamine cleavage fluorescence, 2 h.
Sequence of OTU domain-containing protein 3 (Homo sapiens) (Q5T2D3 whole entry, looked up, the tested form may be a part): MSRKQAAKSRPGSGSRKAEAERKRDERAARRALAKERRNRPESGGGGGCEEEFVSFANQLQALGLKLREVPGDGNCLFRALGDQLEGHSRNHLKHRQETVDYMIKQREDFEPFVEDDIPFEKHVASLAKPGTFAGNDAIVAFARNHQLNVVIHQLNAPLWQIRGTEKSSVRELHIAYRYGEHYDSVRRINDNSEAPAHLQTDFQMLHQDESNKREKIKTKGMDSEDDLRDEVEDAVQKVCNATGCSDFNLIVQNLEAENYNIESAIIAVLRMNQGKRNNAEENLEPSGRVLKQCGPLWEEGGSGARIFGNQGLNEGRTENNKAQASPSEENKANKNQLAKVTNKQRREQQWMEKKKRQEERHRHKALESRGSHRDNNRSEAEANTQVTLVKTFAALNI

Row | Structure (SMILES) | IC50
1 | CC1CC[C@]2(NC1)O[C@H]1C[C@H]3[C@@H]4CC[C@H]5C[C@@H](O[C@@H]6O[C@H](CO)[C@H](O[C@@H]7O[C@H](CO)[C@@H](O)[C@H](O[C@@H]8OC[C@@H](O)[C@H](O)[C@H]8O)[C@H]7O[C@@H]7O[C@H](CO)[C@@H](O)[C@H](O)[C@H]7O)[C@H](O)[C@H]6O)CC[C@]5(C)[C@H]4CC[C@]3(C)[C@H]1[C@@H]2C (stereo partly specified) | > 50 µM (inactive)
2 | N[C@@H](Cc1ccccc1)C(=O)N1CCC2(CC1)CN(C(=O)c1ccc(Cl)cc1)CCO2 | > 50 µM (inactive)
3 | Cc1c(OCC(=O)Nc2nc3ccccc3[nH]2)ccc2c3c(c(=O)oc12)CCC3 | 2.66 µM
4 | CCOc1ccc2c(c1)c(=O)c(C(=O)c1ccc(C)cc1)cn2CC(=O)Nc1ccc(OC)c(OC)c1 | 2.01 µM
5 | CCOC(=O)c1ccc(NC(=O)c2cnc(N3CCOCC3)nc2)cc1 | > 50 µM (inactive)
6 | Cc1ccc2c(=O)c(C(=O)Nc3ccccc3)cn(CC(=O)NC3CCCCC3)c2n1 | > 50 µM (inactive)
7 | Cc1cccc(C(=O)N2CCc3cc(-c4nc(NC(=O)CN5CCc6ccccc6C5)sc4C)ccc32)c1 | > 50 µM (inactive)
8 | c1ccc2c(c1)ccc1nnc(-c3ccc4c(c3)OCO4)n12 | > 50 µM (inactive)
9 | COCCNC(=O)c1ccn(-c2ccc3ccc(-c4ccncc4)cn23)n1 | > 50 µM (inactive)
10 | COc1cccc(Cn2nc3n(CC(C)C)c(=O)c4ccc(C(=O)NCC(C)C)cc4n3c2=O)c1 | 10.2 µM
11 | C[C@]12C(=O)N(c3ccc(C(=O)NCc4ccc(F)cc4)cc3)C(=O)N1CCc1c2[nH]c2ccccc12 | > 50 µM (inactive)
12 | O=S(=O)(Nc1ccc(O)cc1)c1ccc2oc3ccc(S(=O)(=O)Nc4ccc(O)cc4)cc3c2c1 | 46.1 µM
13 | CCCn1cc(C(=O)N2CCC3(CC2)CC2(CO3)Nc3ccccc3-n3cccc32)c(C)n1 (stereo unspecified) | > 50 µM (inactive)
14 | COc1cc(NC(=O)c2cc(CN3CCOCC3)on2)cc(OC)c1 | > 50 µM (inactive)
15 | O=C1N(Cc2ccc(F)cc2)CCN1c1ccc(C(F)(F)F)cn1 | > 50 µM (inactive)
16 | C=Cc1ccc(Cn2cc(S(=O)(=O)N3CCOCC3)ccc2=O)cc1 | > 50 µM (inactive)
17 | COc1cccc(-c2nc(C(N)=O)c3[nH]c(=O)n(-c4cccc(Cl)c4)c3n2)c1OC | > 50 µM (inactive)
18 | COC(=O)c1sccc1NC(=O)COc1ccsc1C(=O)OC | > 50 µM (inactive)
19 | COc1ccccc1NC(=O)Cn1cc(C(=O)c2ccc(C)cc2)c(=O)c2ccccc21 | 39.5 µM
20 | O=C1c2c(O)c(Cl)cc3c2[C@@]2(Oc4cc(Cl)c(O)c5c4[C@]3(O2)[C@@H]2O[C@@H]2C5=O)[C@@H]2O[C@H]12 | 0.703 µM
21 | O=C(/C=C/c1cnc2ccccc2c1)NCc1ccccc1 | > 50 µM (inactive)
22 | COc1ccc(-c2nnc(SCc3ccccc3C#N)o2)c(OC)c1 | > 50 µM (inactive)
23 | CCCCN(CC)c1ncnc2c1sc1nc(-c3ccco3)c3c(c12)CC(C)(C)OC3 | > 50 µM (inactive)

Row | Structure (SMILES) | IC50
24 | COc1ccc(-c2cc(-c3nnc(CSc4nc5ccccc5n4C)o3)c3ccccc3n2)cc1OC | > 50 µM (inactive)
25 | O=C(Cn1ccc2ccc(N3CCOCC3)nc21)NCc1ccccc1F | > 50 µM (inactive)
26 | COc1cccc(CCNC(=O)CCn2c(=O)c(C)nc3cc(C)c(C)cc32)c1 | > 50 µM (inactive)
27 | COc1cc(-c2cc(C(=O)Nc3cc(C)[nH]n3)c3ccccc3n2)cc(OC)c1OC | > 50 µM (inactive)
28 | COc1ccc(OC)c(NC(=O)CS(=O)(=O)c2cn(CC(=O)N3CCC(C)CC3)c3ccccc23)c1 | 33.8 µM
29 | CCC(C)(C)C1CCC2(CC1)N=C(N)Nc1nc3ccccc3n12 (stereo unspecified) | > 50 µM (inactive)
30 | O=C(Nc1cc(Cl)ccc1-n1cncn1)c1ccc(S(=O)(=O)N2CCCC2)cc1 | > 50 µM (inactive)
31 | CC1CCCN(CCCNC(=O)c2ccc(N3CCc4ccccc43)s2)C1 (stereo unspecified) | > 50 µM (inactive)
32 | O=C(NC(Cc1ccccc1)c1nc2ccccc2[nH]1)c1ccccn1 (stereo unspecified) | > 50 µM (inactive)
33 | COc1cccc(NC(=O)CSc2nnc(-c3cc4cccc(OC)c4o3)n2C)c1 | 35.9 µM
34 | O=C(NCc1ccncc1)C1CCN(c2cncnc2N2CCCCC2)CC1 | > 50 µM (inactive)
35 | Cc1cccc(C(=O)Nc2cccc(SC(C(=O)Nc3ccc(O)c(C(=O)O)c3)c3ccccc3)c2)c1 (stereo unspecified) | 24.1 µM
36 | Cc1ccc(C(=O)NCc2ccc(C(=O)Nc3cccc(C)c3)o2)cc1 | > 50 µM (inactive)
37 | O=C(CNS(=O)(=O)c1ccc(F)cc1)N1CCCC(c2nnc3ccccn23)C1 (stereo unspecified) | > 50 µM (inactive)
38 | COC(=O)c1cc2c(ccn2C)n1CC(=O)NC1CC1 | > 50 µM (inactive)
39 | CN(Cc1ccccc1)S(=O)(=O)c1ccc(S(=O)(=O)N2CCN(C(=O)c3cccnc3)CC2)cc1 | > 50 µM (inactive)
40 | Cc1ccc(OC(=O)c2cn(-c3ccccc3)nc2-c2cccnc2)cc1 | > 50 µM (inactive)
41 | CCOC(=O)c1c(C)oc2nc(CSc3ccccc3)[nH]c(=O)c12 | > 50 µM (inactive)
42 | O=C(OCc1ccc(Br)cc1)c1ccc2ccccc2n1 | > 50 µM (inactive)
43 | CC1=C[C@@H](C)CC[C@H]2O[C@@H](C3=C(O)C(=O)C(C)=C4O[C@](O)(C=C43)[C@@H](C)C[C@H](C)C1)[C@H](C)[C@@H](O)[C@H]2C | 20 µM
44 | CN(C)C1CCN(C(=O)c2cc(-c3ccn(-c4ccccc4)n3)n3ccccc23)CC1 | > 50 µM (inactive)
45 | COc1ccc(C(=O)CSc2nnc(-c3cc4cccc(OC)c4o3)n2C)cc1OC | > 50 µM (inactive)
46 | O=C(Nc1ccc2c(c1)N(C(=O)C1CCCC1)CC2)c1c(F)cccc1F | > 50 µM (inactive)

Row | Structure (SMILES) | IC50
47 | CCOc1ccc(NC(=O)COc2cccc(-n3cnnn3)c2)cc1 | > 50 µM (inactive)
48 | Cc1cc(N2CCN(c3ncccn3)CC2)nc2ccc(NC(=O)c3ccncc3)cc12 | 31 µM
49 | CC(=O)Nc1ccc([C@H]2OCC(=O)N(C3CCOCC3)[C@@H]2CO)cc1 | > 50 µM (inactive)
50 | CCn1cc(-c2cc(C(=O)Nc3cnn(Cc4cccc(F)c4)c3)c3ccccc3n2)cn1 | > 50 µM (inactive)
51 | Nc1ccc(NC(=O)c2cc3c(s2)CCC3)cc1[N+](=O)[O-] | 23.5 µM
52 | Cc1cccc2sc(NC(=O)c3nnn(-c4ccc(F)cc4)n3)nc12 | > 50 µM (inactive)
53 | Cc1cc(SCc2ncon2)c(C)cc1Cl | > 50 µM (inactive)
54 | Cc1cc(C)cc(-n2cnc3cc(C(=O)NCCC4=CCCCC4)ccc32)c1 | > 50 µM (inactive)
55 | Cc1ccc(C(=O)Nc2cc3c4c(c2)CC(=O)N4CCC3)cc1 | > 50 µM (inactive)
56 | Cc1cc(C)cc(N(CCC(=O)Nc2ccc(N3CCOCC3)cc2)S(=O)(=O)c2ccc(Cl)cc2)c1 | 19.7 µM
57 | Cc1c(C)n(-c2ccc(Br)cn2)c2ncnc(NCCCO)c12 | > 50 µM (inactive)
58 | O=C(NCCn1ccc2ccccc21)c1cc2ccccc2oc1=O | > 50 µM (inactive)
59 | CC1OC1C(=O)[C@]1(O)[C@H](C)[C@@H](O)[C@@]23O[C@@]2([C@H](O)c2c(O)cccc2C3=O)[C@H]1O (stereo partly specified) | > 50 µM (inactive)
60 | Cc1c(C(=O)NCc2cccc(Br)c2)oc2c1-c1[nH]ncc1CC2 | 48.2 µM
61 | COc1cc2c(c3oc4cccc(O)c4c(=O)c13)C1C=COC1O2 (stereo unspecified) | > 50 µM (inactive)
62 | Cn1c(CCN2CCCC2)nc2cc(NS(=O)(=O)c3ccccc3)ccc21 | > 50 µM (inactive)
63 | CN(C)S(=O)(=O)c1ccc(C(=O)Nc2c(C#N)oc3ccccc23)cc1 | > 50 µM (inactive)
64 | COc1cccc(N2CCN(C(=O)C3CCN(c4nc(NC(C)=O)ns4)CC3)CC2)c1 | > 50 µM (inactive)
65 | N#Cc1cc2c(nc1SCC(=O)NCc1ccccc1)CCCC2 | > 50 µM (inactive)
66 | Cc1cc(C(=O)N2CC(C(=O)Nc3cc(C(F)(F)F)ccc3Cl)C2)no1 | > 50 µM (inactive)
67 | CC1CCCN1C(=O)c1ccn(-c2ccc3ccc(-c4cccnc4)cn23)n1 (stereo unspecified) | > 50 µM (inactive)
68 | COc1cccc2cccc(O)c12 | > 50 µM (inactive)
69 | Cc1ccc(-n2nnc(C(=O)NC3CCCCC3)c2N)cc1 | > 50 µM (inactive)

Row | Structure (SMILES) | IC50
70 | COc1cccc2c1NC(=O)C21CCN(C(=O)Nc2cccc3ccccc23)CC1 | > 50 µM (inactive)
71 | O=C1c2ccccc2-n2c1nc1ccccc1c2=O | > 50 µM (inactive)
72 | COc1ccc(C(=O)Nc2ccc3c(c2)C(=O)N(C)c2ccccc2O3)cc1 | > 50 µM (inactive)
73 | COc1ccc(C)cc1NC(=O)C(NS(=O)(=O)c1ccc2c(c1)CCN2C(C)=O)C(C)C (stereo unspecified) | > 50 µM (inactive)
74 | CCOCCCn1c(SCC(=O)Nc2ccccc2C(F)(F)F)nc2ccccc2c1=O | 19.4 µM
75 | COCCCNC(=O)c1ccc(Cn2c(=O)c3ccccc3n(CC(=O)NC3CCCCC3)c2=O)cc1 | 32.3 µM
76 | Cc1ccc(C(=O)NCCc2nc(-c3ccc4c(c3)OCO4)n[nH]2)cc1F | > 50 µM (inactive)
77 | O=C(CCc1c[nH]c2ccccc12)Nc1ccc(N2CCOCC2)cc1 | 30.9 µM
78 | CN(CCc1ccccc1)c1nccc(N2CCN(C(=O)c3csc(-c4cccnc4)n3)CC2)n1 | > 50 µM (inactive)
79 | COc1ccc(C(C)=O)cc1CC(=O)Nc1nc2ccccc2[nH]1 | > 50 µM (inactive)
80 | O=C(NCc1ccc2c(c1)OCO2)c1cc2c(s1)-c1ccccc1OC2 | 21.7 µM
81 | CC(C)(C)c1ccc(C(=O)Nc2ccc(Cn3cncn3)cc2)cc1 | > 50 µM (inactive)
82 | Cc1ccc2c(c1)N(C)C(=O)c1cc(NC(=O)c3ccc(F)cc3)ccc1O2 | 22.5 µM
83 | CCCCNc1nc2c(-c3ccccc3)nnn2c2ccccc12 | > 50 µM (inactive)
84 | O=C(c1ccco1)N1CCN=C1SCc1ccccc1F | > 50 µM (inactive)
85 | c1ccc(-n2nnc(-c3noc(-c4ccccn4)n3)c2-c2ccncc2)cc1 | 38.7 µM
86 | NS(=O)(=O)c1cc(C(=O)OCC(=O)NC2CCCc3ccccc32)ccc1Cl (stereo unspecified) | 49 µM
87 | CC1OC2CC(O)C1(O)C1=C2C(O)=C(C(N)=O)C(=N)C1=O (stereo unspecified) | > 50 µM (inactive)
88 | Cc1nc(CN2CCn3c(Cn4cccn4)cnc3C2C)cs1 (stereo unspecified) | > 50 µM (inactive)
89 | O=C(OC1CSc2nc3ccccc3n2C1)c1ccc([N+](=O)[O-])o1 (stereo unspecified) | 25.7 µM
90 | O=C(Cc1ccccc1F)N1CCC2(CC1)CC1(CO2)Nc2ccccc2-n2cccc21 (stereo unspecified) | > 50 µM (inactive)
91 | Cc1noc(-c2cc(=O)n(CC(=O)NCc3ccccc3)c3ccccc23)n1 | > 50 µM (inactive)
